Test results from paper PMC8037182, “Solvothermal Synthesis of Multiple Dihydropyrimidinones at a Time as Inhibitors of Eg5” (Molecules, 2021).

Experiments:
T24 cell line = assay: Cytotoxicity MTS assay, T24 cell line; assay type: cell-based; details: for OD490 Mean / OD490 Well 1 / OD490 Well 2 / OD490 Well 3: T24 cell line, first assay
Description: (§1) The positive compounds (IC50 < 100 μM) obtained from the primary Eg5 motor protein ATPase assay were tested for antiproliferative activity in vitro against Caco-2 cell line, Hela cell line, L929 cell line and T24 cell line by performing MTS assay. Cells were introduced into 96-well plates at a density of 1000 cells per well. After 24 h incubation, the cells were exposed with compounds at final concentrations ranging from 0.5 to 100 µM for 24 h. DMSO was used at a final concentration of 0.025% as blank control, monastrol was used as the positive control. Then 20 µL (CellTiter 96® AQueous One Solution Promega, Madison, WI, USA) reagent was added in each well. After 2 h at 37 °C in a 80% humidified, 5% CO2 atmosphere, the absorbance at 490 nm was recorded using a microplate reader (BIO-RAD iMark^TM). The results were obtained in three independent duplicate experiments. The primary data were shown in Supplementary Materials Tables S4–S7. The IC50 values for these compounds were calculated from a non-linear regression graph plotted between the percentage of cell viability and concentration with SPSS17.0 software.

Hela cell line = assay: Cytotoxicity MTS assay, Hela cell line; assay type: cell-based; details: for OD490 value, Mean / OD490 value, Well 1 / OD490 value, Well 2 / OD490 value, Well 3: Hela cell line, MTS
Description: as §1

CCOC(=O)c1[nH]c(C2NC(=O)NC(C)=C2C(=O)Nc2ccccc2OC)c(C(=O)OC)c1C (centres unmarked) [D3]
IC50 (T24 cell line; MTS assay, 24 h exposure): > 150 µM
OD490 Mean (T24 cell line; 0.5μM): 1.8317
OD490 Well 1 (T24 cell line; 0.5μM): 1.9267
OD490 Well 2 (T24 cell line; 0.5μM): 1.7284
OD490 Well 3 (T24 cell line; 0.5μM): 1.8399
OD490 Mean (T24 cell line; 1μM): 1.4215
OD490 Well 1 (T24 cell line; 1μM): 1.4512
OD490 Well 2 (T24 cell line; 1μM): 1.4430
OD490 Well 3 (T24 cell line; 1μM): 1.3702
OD490 Mean (T24 cell line; 10μM): 1.5897
OD490 Well 1 (T24 cell line; 10μM): 1.3957
OD490 Well 2 (T24 cell line; 10μM): 1.6776
OD490 Well 3 (T24 cell line; 10μM): 1.6957
OD490 Mean (T24 cell line; 25μM): 1.4932
OD490 Well 1 (T24 cell line; 25μM): 1.4267
OD490 Well 2 (T24 cell line; 25μM): 1.6194
OD490 Well 3 (T24 cell line; 25μM): 1.4336
OD490 Mean (T24 cell line; 50μM): 1.4228
OD490 Well 1 (T24 cell line; 50μM): 1.3624
OD490 Well 2 (T24 cell line; 50μM): 1.4440
OD490 Well 3 (T24 cell line; 50μM): 1.4620
OD490 Mean (T24 cell line; 100μM): 1.3750
OD490 Well 1 (T24 cell line; 100μM): 1.3903
OD490 Well 2 (T24 cell line; 100μM): 1.4568
OD490 Well 3 (T24 cell line; 100μM): 1.2780
OD490 value, Mean (Hela cell line; 0.5μM, first assay): 2.7753
OD490 value, Well 1 (Hela cell line; 0.5μM, first assay): 2.9485
OD490 value, Well 2 (Hela cell line; 0.5μM, first assay): 2.6032
OD490 value, Well 3 (Hela cell line; 0.5μM, first assay): 2.7743
OD490 value, Mean (Hela cell line; 0.5μM, second assay): 2.7117
OD490 value, Well 1 (Hela cell line; 0.5μM, second assay): 2.7664
OD490 value, Well 2 (Hela cell line; 0.5μM, second assay): 2.9230
OD490 value, Well 3 (Hela cell line; 0.5μM, second assay): 2.4458
OD490 value, Mean (Hela cell line; 0.5μM, third assay): 2.8303
OD490 value, Well 1 (Hela cell line; 0.5μM, third assay): 2.8863
OD490 value, Well 2 (Hela cell line; 0.5μM, third assay): 2.8745
OD490 value, Well 3 (Hela cell line; 0.5μM, third assay): 2.7301
OD490 value, Mean (Hela cell line; 1μM, first assay): 2.5355
OD490 value, Well 1 (Hela cell line; 1μM, first assay): 2.6242
OD490 value, Well 2 (Hela cell line; 1μM, first assay): 2.5242
OD490 value, Well 3 (Hela cell line; 1μM, first assay): 2.4580
OD490 value, Mean (Hela cell line; 1μM, second assay): 2.6019
OD490 value, Well 1 (Hela cell line; 1μM, second assay): 2.7530
OD490 value, Well 2 (Hela cell line; 1μM, second assay): 2.3014
OD490 value, Well 3 (Hela cell line; 1μM, second assay): 2.7514
OD490 value, Mean (Hela cell line; 1μM, third assay): 2.6769
OD490 value, Well 1 (Hela cell line; 1μM, third assay): 2.6365
OD490 value, Well 2 (Hela cell line; 1μM, third assay): 2.7412
OD490 value, Well 3 (Hela cell line; 1μM, third assay): 2.6531
OD490 value, Mean (Hela cell line; 10μM, first assay): 2.6047
OD490 value, Well 1 (Hela cell line; 10μM, first assay): 2.6883
OD490 value, Well 2 (Hela cell line; 10μM, first assay): 2.6311
OD490 value, Well 3 (Hela cell line; 10μM, first assay): 2.4948
OD490 value, Mean (Hela cell line; 10μM, second assay): 2.6182
OD490 value, Well 1 (Hela cell line; 10μM, second assay): 2.7032
OD490 value, Well 2 (Hela cell line; 10μM, second assay): 2.6012
OD490 value, Well 3 (Hela cell line; 10μM, second assay): 2.5503
OD490 value, Mean (Hela cell line; 10μM, third assay): 2.6419
OD490 value, Well 1 (Hela cell line; 10μM, third assay): 2.7745
OD490 value, Well 2 (Hela cell line; 10μM, third assay): 2.6563
OD490 value, Well 3 (Hela cell line; 10μM, third assay): 2.4949
OD490 value, Mean (Hela cell line; 25μM, first assay): 2.3973
OD490 value, Well 1 (Hela cell line; 25μM, first assay): 2.3040
OD490 value, Well 2 (Hela cell line; 25μM, first assay): 2.5337
OD490 value, Well 3 (Hela cell line; 25μM, first assay): 2.3542
OD490 value, Mean (Hela cell line; 25μM, second assay): 2.3999
OD490 value, Well 1 (Hela cell line; 25μM, second assay): 2.5301
OD490 value, Well 2 (Hela cell line; 25μM, second assay): 2.4698
OD490 value, Well 3 (Hela cell line; 25μM, second assay): 2.1998
OD490 value, Mean (Hela cell line; 25μM, third assay): 2.4241
OD490 value, Well 1 (Hela cell line; 25μM, third assay): 2.5355
OD490 value, Well 2 (Hela cell line; 25μM, third assay): 2.5124
OD490 value, Well 3 (Hela cell line; 25μM, third assay): 2.2245
OD490 value, Mean (Hela cell line; 50μM, first assay): 2.2890
OD490 value, Well 1 (Hela cell line; 50μM, first assay): 2.3872
OD490 value, Well 2 (Hela cell line; 50μM, first assay): 2.2920
OD490 value, Well 3 (Hela cell line; 50μM, first assay): 2.1878
OD490 value, Mean (Hela cell line; 50μM, second assay): 2.2189
OD490 value, Well 1 (Hela cell line; 50μM, second assay): 2.3332
OD490 value, Well 2 (Hela cell line; 50μM, second assay): 2.3089
OD490 value, Well 3 (Hela cell line; 50μM, second assay): 2.0147
OD490 value, Mean (Hela cell line; 50μM, third assay): 2.2950
OD490 value, Well 1 (Hela cell line; 50μM, third assay): 2.4301
OD490 value, Well 2 (Hela cell line; 50μM, third assay): 2.3354
OD490 value, Well 3 (Hela cell line; 50μM, third assay): 2.1196
OD490 value, Mean (Hela cell line; 100μM, first assay): 1.7776
OD490 value, Well 1 (Hela cell line; 100μM, first assay): 1.7277
OD490 value, Well 2 (Hela cell line; 100μM, first assay): 1.8895
OD490 value, Well 3 (Hela cell line; 100μM, first assay): 1.7156
OD490 value, Mean (Hela cell line; 100μM, second assay): 1.7632
OD490 value, Well 1 (Hela cell line; 100μM, second assay): 1.6245
OD490 value, Well 2 (Hela cell line; 100μM, second assay): 1.8996
OD490 value, Well 3 (Hela cell line; 100μM, second assay): 1.7654
OD490 value, Mean (Hela cell line; 100μM, third assay): 1.7923
OD490 value, Well 1 (Hela cell line; 100μM, third assay): 1.6654
OD490 value, Well 2 (Hela cell line; 100μM, third assay): 1.8247
OD490 value, Well 3 (Hela cell line; 100μM, third assay): 1.8869
IC50 (Hela cell line; MTS assay, 24 h exposure): 115 µM
